{"source": "patent US7834148B2", "about": "“Protein phosphorylation imaging systems, methods of making phosphorylation imaging systems, and methods of use thereof” (Stanford University, priority 2006, dated 2010)", "key": {"Akt kinase activity [1]": {"test_system": "Akt kinase activity", "assay": "Akt kinase sensor (AS1T/AS1A) complemented FL activity, luminometer assay in transiently transfected BT474 cells", "format": "cell-based, human", "details": "BT474 transiently transfected with AS1T, 24 hours, at 50 μM, relative to carrier control, p<0.05", "method": "FL activity was determined by luminometer assays using cell lysates and normalized for protein content and transfection efficiency. LY treatment of BT474 cells transiently transfected with AS1T led to a dose dependent increase in FL activity in (1.3-fold maximum increase, p<0.05 at 50 μM, relative to carrier control treated cells).\n(§1) Transfections were performed in 80% confluent 24 hr-old cultures of 293T and BT474 cells. For transient transfection, 250 ng/well of pcDNA molar equivalent of each AS1A and AS1T were used in 12-well tissue culture plates and 5 μl Lipofectamine 2000 was used per transfection following the manufacturer's instructions. 5 ng of pcDNA3.1(+) vector expressing full length RL was co-transfected per well to normalize for transfection efficiency. […]\n(§2) In brief, transfected cells were lysed in 200 μl of ice-cold 1× passive lysis buffer supplied by Promega and were shaken for 15 mins on ice. […] RL activity was determined as described for FL activity, except 0.5 μg of coelenterazine dissolved in 100 μl of was used. Protein concentrations in cell lysates were determined by Bradford Assay (Bio-Rad). FL activities were normalized for protein content and for transfection efficiency using RL activity and expressed as relative light units per microgram protein per minute of counting (RLU/μg protein/min)."}, "Akt kinase activity [2]": {"test_system": "Akt kinase activity", "assay": "Akt kinase sensor complemented FL activity, luminometer assay in transiently transfected 293T cells", "format": "cell-based, human", "method": "Next the hypothesis that activation of Akt activity would lead to increased phosphorylation of AKM and interaction with FHA2 in AS1T was tested, and subsequent inhibition of split FL complementation. 293T cells transiently transfected with AS1T and AS1A were treated with platelet derived growth factor (PDGF) for 30 minutes prior to analysis of FL activity.\nTo increase the dynamic range of AS1T for indirect monitoring of Akt kinase activity, the original FL fragments (NFL: 1-416/CFL: 398-550) were replaced with the optimal split FL sites (1-398/394-550) as AS2T. The corresponding FL fragments in AS1A were also replaced to create AS2A. 293T cells transiently transfected with AS2T or AS2A were treated with different concentrations of LY or carrier control for 24 hours prior to analysis of FL activity. […] To determine if the specificity of AS2 can be restored by using more rigid linkers, the flexible (G4S)3 linkers were replaced with (EAAAR)3 used for intramolecular folding sensors previously used to studying FRB/FKBP12 interactions. However, there was a loss of specificity in response to LY.\nas §1, §2"}, "Akt kinase activity [3]": {"test_system": "Akt kinase activity", "assay": "Akt kinase sensor complemented FL activity, bioluminescence imaging of intact 293T/AS1T and 293T/AS1A stable cells", "format": "cell-based, human", "details": "AS1T sensor", "method": "Complemented FL activity at each time point was determined by bioluminescence imaging of intact cells by addition of D-luciferin (FIG. 7a), prior to normalization for protein content (FIG. 7b).\nFL activities in intact cells were determined by bioluminescence imaging of intact cells as described above. Cells were lysed in 1% NP40 buffer (Cell Signaling, Beverly, Mass.) for 15 mins on ice followed by centrifugation at 1×10^4 g to remove cell debris. Protein concentrations were determined by Biorad protein Dc assay (Biorad). FL activities were normalized to protein content and then to that of carrier control treated cells and expressed as normalized FL activity±standard error of means (S.E.M.)"}, "[4]": {"test_system": "insulin receptor substrate 1 (IRS-1) phosphorylation", "assay": "Renilla Luciferase based IRS-1 phosphorylation sensor, luminometer assay in transfected CHO-IR cells", "format": "cell-based", "details": "24 h incubation, insulin 0, 25, 50 and 100 nM", "method": "FIG. 3 is a graph of the activation of the Renilla Luciferase based IRS-1 phosphorylation sensor as a function of Insulin concentration. Luminometer assay result of CHO-IR cells transfected with a phosphorylation sensor vector and assayed after 24 h of incubation with the addition of different concentrations of insulin (0, 25, 50 and 100 nM).\nThe IRS-1 phosphorylation sensor was tested based on split renilla and split Firefly Luciferase in transient transfection assays in cell culture with and without insulin. The single fusion vector (FIG. 2) was utilized with split Renilla Luciferase (split site 229, non-self complementing), with a semi-rigid peptide ((EAAAR)2 (SEQ ID NO: 36)) through screening of different peptides. The phosphorylation domain was the PTB peptide and was chosen to be an 13 amino acid peptide (SEQ ID NO: 28) including Y941 (tyrosine at position 941 of IRS-1). The substrate recognition domain was chosen to be the SH2 domain of PI3 Kinase. The vector constructed was transiently transfected in CHO-IR (expressing the insulin receptor) and 293T cells (not expressing the insulin receptor)."}, "[5]": {"test_system": "insulin receptor substrate 1 (IRS-1) phosphorylation", "assay": "Firefly Luciferase based IRS-1 phosphorylation sensor in transfected CHO-IR cells", "format": "cell-based", "details": "presence of insulin compared to no insulin exposure", "text": "FIG. 4 is a graph of the activation of the Firefly Luciferase based IRS-1 phosphorylation sensor as a function of Insulin exposure. Results of CHO-IR cells transfected and co-transfected with a self-complementing Firefly Luciferase based IRS-1 sensor used for studying insulin mediated IRS-1 phosphorylation. A two-vector system, single fusion vector with and without a semi-rigid linker were all compared. Greater absolute signal is seen with the fusion vector strategies.\nNext, constructs were made using self-complementing split fragments of Firefly Luciferase with a semi-rigid linker or without any linker, and these were compared with two separate vectors (non-fusion approach) in CHO-IR cells in the presence and absence of insulin (FIG. 3). The results of these studies show signal from all three vectors in the presence of insulin, but the highest absolute signal is from the two fusion vectors. Furthermore, for the two fusion vectors the background signal is lowest (prior to insulin exposure) when using the fusion vector with a semi-rigid linker.\nThe fusion strategy increases absolute signal as compared to using two separate vectors. Furthermore, using a semi-rigid linker decreases background signal in the fusion vector strategy. […]"}, "[6]": {"test_system": "insulin receptor substrate 1 (IRS-1) phosphorylation", "assay": "Bioluminescence CCD imaging of split Firefly Luciferase IRS-1 phosphorylation sensor, CHO-IR cells implanted in living mice", "format": "in vivo, nude mice", "details": "mice with implanted sensor-transfected CHO-IR cells, 4 IU s.c. in twelve hour intervals, imaged 24 hours later", "method": "FIG. 5 illustrates a bioluminescence CCD imaging of a split Firefly Luciferase based Insulin Receptor Substrate 1 (IRS-1) phosphorylation sensor in a living mouse.\nFour nude mice were implanted with 5 million CHO-IR cells transiently transfected with the fusion split firefly IRS-1 phosphorylation sensor with linker (EAAAR)2 and also with 5 million CHO-IR mock-transfected cells at two separate sites. The mice were imaged using D-Luciferin (3 mg i.p.) with a CCD camera. Two mice were then given 4 IU human long-acting insulin (s.c.) in twelve hour intervals, and two were not given insulin and all four were imaged again 24 hours later. Consistent results were obtained in the 2 mice in each group with exposure to insulin leading to an increase in signal (˜5-fold induction) and lack of insulin exposure leading to minimal change (˜1.3 fold induction)."}}, "data": [{"compound": "O=c1cc(N2CCOCC2)oc2c(-c3ccccc3)cccc12", "note": "[LY, LY294002]", "values": [{"measurement": "maximum increase in FL activity", "setting": "Akt kinase activity [1]", "result": 1.3, "unit": "fold"}, {"measurement": "increase in FL activity with AS2T or AS2A compared to AS1T or AS1A", "setting": "Akt kinase activity [2]; 293T transiently transfected, LY for 24 hours, unpublished data", "result": 2, "unit": "fold"}, {"measurement": "maximum induction (dynamic range of AS1T)", "setting": "Akt kinase activity [3]", "result": 4, "unit": "fold"}]}, {"compound": "insulin", "values": [{"measurement": "complemented Renilla Luciferase activity", "setting": "[4]", "result": "concentration dependent increase"}, {"measurement": "signal of split bioluminescence reporter IRS-1 sensor", "setting": "[5]", "result": "increased signal"}, {"measurement": "increase in signal (induction)", "setting": "[6]", "result": "~5", "unit": "fold induction"}]}, {"compound": "platelet derived growth factor [PDGF]", "values": [{"measurement": "FL activity", "setting": "Akt kinase activity [2]; 293T transiently transfected with AS1A, 30 minutes treatment, p>0.05", "result": "did not significantly decrease"}, {"measurement": "decrease in FL activity", "setting": "Akt kinase activity [2]; 293T transiently transfected with AS1T, 30 minutes treatment, vs carrier control, p<0.05", "result": 60, "unit": "%"}]}]}
